Data from paper PMC9653173, “Trotabresib (CC-90010) in combination with adjuvant temozolomide or concomitant temozolomide plus radiotherapy in patients with newly diagnosed glioblastoma” (Neuro-Oncology Advances, 2022).
Where “and” joins values, the source holds several entries; their conditions need not be identical. Equal entries are not always repeated. Where two headings read alike, the source gives them in different places.

Columns and labels:
[1] = tested on: patients with newly diagnosed glioblastoma
Source text: The phase Ib, dose-escalation part of this study explored escalating oral doses of trotabresib in combination with TMZ in the adjuvant setting and with TMZ plus RT in the concomitant setting. […] Dose-escalation decisions were made by the safety review committee, based on all available safety, pharmacokinetics, pharmacodynamics, and preliminary efficacy information, and a calculation of risk assessment using a Bayesian logistic regression model.
The primary endpoints of the study were to determine the safety and tolerability, maximum tolerated dose, and/or recommended phase II dose (RP2D) of trotabresib in combination with TMZ as adjuvant therapy, and with TMZ and RT as concomitant therapy. […] Trotabresib pharmacodynamics was an exploratory endpoint.
Adverse events (AEs) were classified using the Medical Dictionary for Regulatory Activities v18.1 or higher system organ class and preferred term. Severity of AEs was graded based on the patient’s symptoms according to the National Cancer Institute Common Terminology Criteria for Adverse Events v5.0.[35] Dose-limiting toxicities (DLTs) were defined as any of the toxicities described in Supplementary Table S2 occurring within the DLT assessment period (cycle 1 [28 days]), unless the event could clearly be determined to be unrelated to trotabresib. Screening MRI scans were performed after surgical resection and within 28 days (+3 days) prior to initiation of study treatment. Subsequent tumor assessments by MRI or CT were performed at week 10 during the concomitant treatment period and at the end of every other treatment cycle from cycle 2 onwards during the adjuvant and trotabresib monotherapy treatment periods. Best overall response (BOR) was evaluated as complete response (CR), partial response (PR), SD, progressive disease (PD), or not evaluable, according to Response Assessment in Neuro-Oncology criteria for high-grade glioma.[36] Plasma samples were collected during the first treatment cycle for investigation of trotabresib pharmacokinetics and pharmacodynamics. Plasma pharmacokinetic parameters assessed included peak plasma concentration (Cmax), time to peak plasma concentration (tmax), area under the plasma concentration–time curve (AUC), and terminal half-life (t½). Pharmacodynamic markers assessed included blood levels of CCR1 and HEXIM1 mRNA, which are established markers of BET inhibitor target engagement.[17],[22],[37],[38]

glioblastoma PDX models = assay: Tumor growth inhibition in glioblastoma patient-derived xenograft models; format: in vivo; conditions: Supplementary Figure S1
Source text: Supplementary Figure 1. Trotabresib-mediated tumor growth inhibition in a glioblastoma patient-derived xenograft with and without TMZ. [picture] ^aTMZ given on days 7–9 and 22–24.

[2] = adjuvant overall (N = 18), related to labelled drug(s)
[3] = concomitant overall (N = 14), related to labelled drug(s)

## Cn1cc(-c2cc(S(C)(=O)=O)ccc2OCC2CC2)c2ccccc2c1=O [Trotabresib]
[1]; [2]
  Vomiting TRAE, any grade: 4 (22) n (%)
  Vomiting TRAE, grade 3/4: 0 n (%)
[1]; adjuvant, trotabresib 30 mg
  Serious intracranial hemorrhage, attributed to trotabresib: 1 patient
[1]; adjuvant, trotabresib 45 mg
  Serious diarrhea, attributed to trotabresib: 1 patient
[1]; both cohorts
  Treatment-related deaths: no treatment-related deaths
[1]; concomitant overall
  Rash and other skin-related TRAEs attributed to trotabresib only: 4 (29%) n (%)
[1]; [3]
  ALT increased TRAE, any grade: 1 (7) n (%)
  ALT increased TRAE, grade 3/4: 1 (7) n (%)
  AST increased TRAE, any grade: 1 (7) n (%)
  AST increased TRAE, grade 3/4: 0 n (%)
  Acneiform dermatitis TRAE, any grade: 3 (21) n (%)
  Acneiform dermatitis TRAE, grade 3/4: 0 n (%)
  Anemia TRAE, any grade: 3 (21) n (%)
  Anemia TRAE, grade 3/4: 2 (14) n (%)
  Any TRAE, any grade: 14 (100) n (%)
  Any TRAE, grade 3/4: 7 (50) n (%)
  Asthenia TRAE, any grade: 3 (21) n (%)
  Asthenia TRAE, grade 3/4: 0 n (%)
  Blood bilirubin increased TRAE, any grade: 2 (14) n (%)
  Blood bilirubin increased TRAE, grade 3/4: 0 n (%)
  Decreased appetite TRAE, any grade: 3 (21) n (%)
  Decreased appetite TRAE, grade 3/4: 0 n (%)
  Diarrhea TRAE, any grade: 2 (14) n (%)
  Diarrhea TRAE, grade 3/4: 1 (7) n (%)
  Dysgeusia TRAE, any grade: 5 (36) n (%)
  Dysgeusia TRAE, grade 3/4: 0 n (%)
  Dyspepsia TRAE, any grade: 2 (14) n (%)
  Dyspepsia TRAE, grade 3/4: 0 n (%)
  Fatigue TRAE, any grade: 5 (36) n (%)
  Fatigue TRAE, grade 3/4: 1 (7) n (%)
  Hyperbilirubinemia TRAE, any grade: 2 (14) n (%)
  Hyperbilirubinemia TRAE, grade 3/4: 0 n (%)
  Hyperglycemia TRAE, any grade: 1 (7) n (%)
  Hyperglycemia TRAE, grade 3/4: 0 n (%)
  Hypophosphatemia TRAE, any grade: 1 (7) n (%)
  Hypophosphatemia TRAE, grade 3/4: 0 n (%)
  Hypotension TRAE, any grade: 0 n (%)
  Hypotension TRAE, grade 3/4: 0 n (%)
  Insomnia TRAE, any grade: 0 n (%)
  Insomnia TRAE, grade 3/4: 0 n (%)
  Intracranial hemorrhage TRAE, any grade: 0 n (%)
  Intracranial hemorrhage TRAE, grade 3/4: 0 n (%)
  Leukopenia TRAE, any grade: 0 n (%)
  Leukopenia TRAE, grade 3/4: 0 n (%)
  Lymphopenia TRAE, any grade: 2 (14) n (%)
  Lymphopenia TRAE, grade 3/4: 0 n (%)
  Nausea TRAE, any grade: 8 (57%) n (%) and 8 (57) n (%)
  Nausea TRAE, grade 3/4: 0 n (%)
  Neutropenia TRAE, any grade: 6 (43) n (%)
  Neutropenia TRAE, grade 3/4: 4 (29) n (%)
  Pruritus TRAE, any grade: 0 n (%)
  Pruritus TRAE, grade 3/4: 0 n (%)
  Rash TRAE, any grade: 1 (7) n (%)
  Rash TRAE, grade 3/4: 0 n (%)
  Seizure TRAE, any grade: 2 (14) n (%)
  Seizure TRAE, grade 3/4: 0 n (%)
  Thrombocytopenia TRAE, any grade: 9 (64%) n (%) and 9 (64) n (%)
  Thrombocytopenia TRAE, grade 3/4: 6 (43%) n (%) and 6 (43) n (%)
  Vomiting TRAE, any grade: 5 (36) n (%)
  Vomiting TRAE, grade 3/4: 0 n (%)
[1]; trotabresib 30 mg 4 days on/24 days off
  Platelet nadir: > 100,000 /mm^3
Glioblastoma PDX models; glioblastoma PDX models
  Effect on antiproliferative effects of TMZ: enhances the antiproliferative effects of TMZ
Glioblastoma PDX models; glioblastoma models
  Antitumor activity as a single agent: has antitumor activity in glioblastoma models as a single agent
